Usually IC50 stands for the midpoint of a concentration-inhibition curve. Low readings indicate inhibition by little substance, high ones a need for much substance. By EC50 is commonly meant the concentration that produces a half-maximal response.

Drawing on patent US8735424B2 (Novartis AG, priority 2008, dated 2014), this text covers IC50 and EC50 for 19 compounds.

For one assay, the target named is PIM1 (Homo sapiens, UniProt P11309). The assay can be described thus: Pim1 ATP depletion assay. Type of assay: biochemical. Conditions: 20 μM ATP, 2.5 nM PIM1. Here is the method:
The activity of PIM1 is measured using a luciferase-luciferin based ATP detection reagent to quantify ATP depletion resulting from kinase-catalyzed phosphoryl transfer to a peptide substrate. Compounds to be tested are dissolved in 100% DMSO and directly distributed into white 384-well plates at 0.5 μl per well. To start the reaction, 10 μl of 5 nM Pim1 kinase and 80 μM BAD peptide (RSRHSSYPAGT-OH) in assay buffer (50 mM HEPES pH 7.5, 5 mM MgCl2, 1 mM DTT, 0.05% BSA) is added into each well. After 15 minutes, 10 μl of 40 μM ATP in assay buffer is added. Final assay concentrations are 2.5 nM PIM1, 20 μM ATP, 40 μM BAD peptide and 2.5% DMSO. The reaction is performed until approximately 50% of the ATP is depleted, then stopped with the addition of 20 μl KinaseGlo Plus (Promega Corporation) solution. The stopped reaction is incubated for 10 minutes and the remaining ATP detected via luminescence on the Victor2 (Perkin Elmer). […] IC50, the half maximal inhibitory concentration, represents the concentration of a test compound that is required for 50% inhibition of its target in vitro.

Another assay concerns the target PIM2 (Homo sapiens, UniProt Q9P1W9). The assay can be described thus: Pim2 ATP depletion assay. Type of assay: biochemical. Conditions: 4 μM ATP, 5 nM PIM2. Here is the method:
The activity of PIM2 is measured using a luciferase-luciferin based ATP detection reagent to quantify ATP depletion resulting from kinase-catalyzed phosphoryl transfer to a peptide substrate. Compounds to be tested are dissolved in 100% DMSO and directly distributed into white 384-well plates at 0.5 μl per well. To start the reaction, 10 μl of 10 nM Pim2 kinase and 20 μM BAD peptide (RSRHSSYPAGT-OH) in assay buffer (50 mM HEPES pH 7.5, 5 mM MgCl2, 1 mM DTT, 0.05% BSA) is added into each well. After 15 minutes, 10 μl of 8 μM ATP in assay buffer is added. Final assay concentrations are 5 nM PIM2, 4 μM ATP, 10 μM BAD peptide and 2.5% DMSO. The reaction is performed until approximately 50% of the ATP is depleted, then stopped with the addition of 20 μl KinaseGlo Plus (Promega Corporation) solution. The stopped reaction is incubated for 10 minutes and the remaining ATP detected via luminescence on the Victor2 (Perkin Elmer).

A further assay relates to KMS11 cells. The assay can be described thus: Cell proliferation assay (CellTiter-Glo). It is filed as cell-based. Conditions: KMS-11, 72 h; KMS11 human myeloma cell line, 3 days. Here is the method: KMS11 (human myeloma cell line), were cultured in IMDM supplemented with 10% FBS, sodium pyruvate and antibiotics. Cells were plated in the same medium at a density of 2000 cells per well into 96 well tissue culture plates, with outside wells vacant, on the day of assay. MM1.s (human myeloma cell line), were cultured in RPMI1640 supplemented with 10% FBS, sodium pyruvate and antibiotics. Cells were plated in the same medium at a density of 5000 cells per well into 96 well tissue culture plates, with outside wells vacant, on the day of assay.
Test compounds supplied in DMSO were diluted into DMSO at 500 times the desired final concentrations before dilution into culture media to 2 times final concentrations. Equal volumes of 2× compounds were added to the cells in 96 well plates and incubated at 37° C. for 3 days.
After 3 days plates were equilibrated to room temperature and equal volume of CellTiter-Glow Reagent (Promega) was added to the culture wells. The plates were agitated briefly and luminescent signal was measured with luminometer. The percent inhibition of the signal seen in cells treated with DMSO alone vs. cells treated with control compound was calculated and used to determine EC50 values (i.e., the concentration of a test compound that is required to obtain 50% of the maximum effect in the cells) for tested compounds, as shown in Example 41.

Another assay deals with PIM3 (Homo sapiens, UniProt Q86V86). Put plainly: Pim3 ATP depletion assay. It is filed as biochemical. Conditions: 40 μM ATP. Here is the method: The activity of PIM3 is measured using a luciferase-luciferin based ATP detection reagent to quantify ATP depletion resulting from kinase-catalyzed phosphoryl transfer to a peptide substrate. Compounds to be tested are dissolved in 100% DMSO and directly distributed into white 384-well plates at 0.5 μl per well. To start the reaction, 10 μl of 10 nM Pim3 kinase and 200 μM BAD peptide (RSRHSSYPAGT-OH) in assay buffer (50 mM HEPES pH 7.5, 5 mM MgCl2, 1 mM DTT, 0.05% BSA) is added into each well. After 15 minutes, 10 μl of 80 μM ATP in assay buffer is added. Final assay concentrations are 5 nM PIM1, 40 μM ATP, 100 μM BAD peptide and 2.5% DMSO. The reaction is performed until approximately 50% of the ATP is depleted, then stopped by the addition of 20 μl KinaseGlo Plus (Promega Corporation) solution. The stopped reaction is incubated for 10 minutes and the remaining ATP detected via luminescence on the Victor2 (Perkin Elmer).

Chain of PIM2 (Q9P1W9 whole entry): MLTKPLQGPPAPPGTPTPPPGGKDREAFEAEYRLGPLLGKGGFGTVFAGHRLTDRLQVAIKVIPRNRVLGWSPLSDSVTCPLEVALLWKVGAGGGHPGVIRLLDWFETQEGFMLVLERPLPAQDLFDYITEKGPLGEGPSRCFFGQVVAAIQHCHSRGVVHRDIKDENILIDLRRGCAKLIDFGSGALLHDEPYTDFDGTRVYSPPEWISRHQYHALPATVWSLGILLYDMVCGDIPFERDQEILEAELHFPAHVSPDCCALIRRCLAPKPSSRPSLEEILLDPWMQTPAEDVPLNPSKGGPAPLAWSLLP
Chain of PIM1 (P11309 whole entry): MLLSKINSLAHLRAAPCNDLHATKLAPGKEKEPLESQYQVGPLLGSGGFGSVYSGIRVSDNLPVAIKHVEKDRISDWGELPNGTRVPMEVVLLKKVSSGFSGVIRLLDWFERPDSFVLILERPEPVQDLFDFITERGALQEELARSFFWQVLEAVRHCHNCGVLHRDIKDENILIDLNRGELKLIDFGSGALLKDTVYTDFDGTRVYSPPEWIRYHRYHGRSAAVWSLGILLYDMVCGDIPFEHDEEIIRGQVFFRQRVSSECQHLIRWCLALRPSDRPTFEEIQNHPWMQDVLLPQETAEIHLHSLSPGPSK

On to `Nc1ccc(-c2ccccc2F)nc1-c1cc2c(N3CCC[C@H](N)C3)ccnc2cn1` [Example 11, (S)-2-(4-(3-aminopiperidin-1-yl)-1,7-naphthyridin-6-yl)-6-(2-fluorophenyl)pyridin-3-amine], for which the IC50 against PIM1 worked out at 2 nM; on PIM2, 59 nM; at PIM3 it was 3 nM. The compound further registered a concentration for a half-maximal effect (EC50) in the assay on KMS11 cells of 5200 nM.

For `CC(C)NC(=O)c1ccc(F)c(-c2ccc(N)c(-c3cc4c(N5CCC[C@@H](N)C5)ccnc4cn3)n2)c1` [Example 8, (R)-3-(5-amino-6-(4-(3-aminopiperidin-1-yl)-1,7-naphthyridin-6-yl)pyridin-2-yl)-4-fluoro-N-isopropylbenzamide], the half-inhibitory concentration (IC50) on PIM1 was 16 nM; against PIM2, 81 nM; at PIM3 it was 21 nM. In addition, in the assay with KMS11 cells, the half-maximal effective concentration (EC50) came out at 4500 nM.

Take `N[C@H]1CCCN(c2ccnc3ccc(-c4cccc(-c5c(F)cccc5F)n4)cc23)C1` [Example 26, (S)-1-(6-(6-(2,6-difluorophenyl)pyridin-2-yl)quinolin-4-yl)piperidin-3-amine]: the IC50 on PIM1 was 16 nM; against PIM2, 331 nM; against PIM3, 26 nM.

For the compound `Nc1ccc(-c2ccc(F)cc2)nc1-c1cc2c(N3CCC[C@H](N)C3)ccnc2cn1` [Example 19, (S)-2-(4-(3-aminopiperidin-1-yl)-1,7-naphthyridin-6-yl)-6-(4-fluorophenyl)pyridin-3-amine], the half-maximal inhibitory concentration (IC50) turned out to be 6 nM against PIM1, 102 nM on PIM2 and 7 nM against PIM3. In the assay with KMS11 cells, this compound registered a concentration for a half-maximal effect (EC50) of 4000 nM.

Take `Nc1ccc(-c2ccc(F)cc2F)nc1-c1cc2c(N3CCC[C@H](N)C3)ccnc2cn1` [Example 17, (S)-2-(4-(3-aminopiperidin-1-yl)-1,7-naphthyridin-6-yl)-6-(2,4-difluorophenyl)pyridin-3-amine]: the figures for the half-inhibitory concentration (IC50) at PIM1, against PIM2 and on PIM3 were 4 nM, 151 nM and 13 nM, respectively.

For the compound `C[C@@H]1C[C@H](N)CN(c2ccnc3ccc(-c4cccc(-c5c(F)cccc5F)n4)cc23)C1` [Example 34, (3S,5R)-1-(6-(6-(2,6-difluorophenyl)pyridin-2-yl)quinolin-4-yl)-5-methylpiperidin-3-amine], the values for the IC50 against PIM1, on PIM2 and at PIM3 were 2 nM, 33 nM and 7 nM, respectively.

Take `CN(C)C(=O)c1ccc(F)c(-c2ccc(N)c(-c3cc4c(N5CCC[C@H](N)C5)ccnc4cn3)n2)c1` [Example 16, (S)-3-(5-amino-6-(4-(3-aminopiperidin-1-yl)-1,7-naphthyridin-6-yl)pyridin-2-yl)-4-fluoro-N,N-dimethylbenzamide]: the figures for the half-inhibitory concentration (IC50) on PIM1, against PIM2 and on PIM3 were 10 nM, 120 nM and 41 nM, respectively. This compound also showed an EC50 in the assay with KMS11 cells of 4000 nM.

As for `Nc1ccc(-c2cccc(S(N)(=O)=O)c2)nc1-c1cc2c(N3CCC[C@H](N)C3)ccnc2cn1` [Example 21, (S)-3-(5-amino-6-(4-(3-aminopiperidin-1-yl)-1,7-naphthyridin-6-yl)pyridin-2-yl)benzenesulfonamide], the IC50 came to 2 nM against PIM1, 160 nM on PIM2 and 8 nM against PIM3.

Regarding `N[C@H]1CCCN(c2ccnc3ccc(-c4nccc(-c5c(F)cccc5F)n4)cc23)C1` [Example 29], the figures for the IC50 on PIM1, against PIM2 and against PIM3 were 6 nM, 132 nM and 8 nM, respectively.

As to `N[C@@H]1CN(c2ccnc3ccc(-c4cccc(-c5c(F)cccc5F)n4)cc23)CC[C@H]1F` [Example 32, (3R,4R)-1-(6-(6-(2,6-difluorophenyl)pyridin-2-yl)quinolin-4-yl)-4-fluoropiperidin-3-amine], the IC50 against PIM1 came out at 27 nM; against PIM2, 604 nM; against PIM3 it was 42 nM.

Turning to `COc1cccc(-c2ccc(N)c(-c3cc4c(N5CCC[C@H](N)C5)ccnc4cn3)n2)n1` [Example 14, (S)-6-(4-(3-aminopiperidin-1-yl)-1,7-naphthyridin-6-yl)-6′-methoxy-2,2′-bipyridin-5-amine], the IC50 on PIM1 worked out at 6 nM; on PIM2 it was 132 nM; against PIM3, 8 nM.

For the compound `N[C@@H]1CN(c2ccnc3ccc(-c4cccc(-c5nccs5)n4)cc23)CC[C@H]1O` [Example 36, (3R,4R)-3-amino-1-(6-(6-(thiazol-2-yl)pyridin-2-yl)quinolin-4-yl)piperidin-4-ol], the half-inhibitory concentration (IC50) turned out to be 9 nM at PIM1, 75 nM at PIM2 and 9 nM on PIM3.

In the case of `N[C@H]1CCCN(c2ccnc3ccc(-c4nccc(-c5ccccc5F)n4)cc23)C1` [Example 30], the figures for the 50% inhibitory concentration (IC50) against PIM1, against PIM2 and at PIM3 were 8 nM, 347 nM and 20 nM, respectively.

As to `Cc1cc(-c2ccnc3cnc(-c4nc(-c5cc(C(=O)NC(C)C)ccc5F)ccc4N)cc23)cc(N)n1` [Example 4, 3-(5-amino-6-(4-(2-amino-6-methylpyridin-4-yl)-1,7-naphthyridin-6-yl)pyridin-2-yl)-4-fluoro-N-isopropylbenzamide], the IC50 on PIM1 is 24 nM; against PIM2, 350 nM; against PIM3, 40 nM.

For `CS(=O)(=O)c1cccc(-c2ccc(N)c(-c3cc4c(N5CCC[C@H](N)C5)ccnc4cn3)n2)c1` [Example 22, (S)-2-(4-(3-aminopiperidin-1-yl)-1,7-naphthyridin-6-yl)-6-(3-(methylsulfonyl)phenyl)pyridin-3-amine], the 50% inhibitory concentration (IC50) on PIM1 was found to be 4 nM; against PIM2 it was 280 nM; against PIM3, 10 nM.

As for `N[C@@H]1CN(c2ccnc3ccc(-c4cccc(-c5c(F)cccc5F)n4)cc23)CC[C@H]1O` [Example 35, (3R,4R)-3-amino-1-(6-(6-(2,6-difluorophenyl)pyridin-2-yl)quinolin-4-yl)piperidin-4-ol], the IC50 against PIM1 is 19 nM; on PIM2, 373 nM; at PIM3 it was 21 nM.

With `Cc1cc(-c2ccnc3cnc(-c4nc(-c5c(F)cccc5F)ccc4N)cc23)cc(N)n1` [Example 3, 4-(6-(3-amino-6-(2,6-difluorophenyl)pyridin-2-yl)-1,7-naphthyridin-4-yl)-6-methylpyridin-2-amine], the values for the IC50 on PIM1, at PIM2 and at PIM3 were 15 nM, 809 nM and 25 nM, respectively.

For the compound `N[C@@H]1CN(c2ccnc3ccc(-c4cccc(-c5nccs5)n4)cc23)CC[C@H]1F` [Example 33, (3R,4R)-4-fluoro-1-(6-(6-(thiazol-2-yl)pyridin-2-yl)quinolin-4-yl)piperidin-3-amine], the results for the IC50 at PIM1, at PIM2 and on PIM3 were 22 nM, 244 nM and 21 nM, respectively.

Take `CC(C)NC(=O)c1ccc(F)c(-c2ccc(N)c(-c3cc4c(N5CCC[C@H](N)C5)c(F)cnc4cn3)n2)c1` [Example 2, (S)-3-(5-amino-6-(4-(3-aminopiperidin-1-yl)-3-fluoro-1,7-naphthyridin-6-yl)pyridin-2-yl)-4-fluoro-N-isopropylbenzamide]: the IC50 came out at 18 nM on PIM1, 258 nM against PIM2 and 37 nM against PIM3.
